± gives the standard deviation of the averaged measurements.
Columns and labels:
CANERTINIB [1] = compound: T1, C=CC(=O)Nc1cc2c(Nc3ccc(F)c(Cl)c3)ncnc2cc1OCCCN1CCOCC1 [CANERTINIB]; assay: surviving fraction relative to DMSO-only wells; higher = less growth inhibition; settings: exposure time: 5 days
Outline: (§1)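 Viability values are CellTiter-Glo luminescence readings, given as surviving fraction against the median of DMSO-only wells. The readings were taken after 10 minutes at room temperature, following five days of continuous exposure to inhibitors at 0.5, 1, 5, 10, 50, 100, 500 and 1000 nM that began 24 hours after log-phase tumour cell lines were seeded at 250–500 cells per well in 384-well plates. Every line was screened three times and kept only if replicate Pearson r >0.7 and median Z' >0.3.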

SAPACITABINE [2] = compound: T2, CCCCCCCCCCCCCCCC(=O)Nc1ccn([C@@H]2O[C@H](CO)[C@@H](O)[C@@H]2C#N)c(=O)n1 [SAPACITABINE]; assay: as above; settings: exposure time: 5 days
Outline: as §1

MDV3100 [3] = compound: T3, CNC(=O)c1ccc(N2C(=S)N(c3ccc(C#N)c(C(F)(F)F)c3)C(=O)C2(C)C)cc1F [MDV3100]; assay: as above; settings: exposure time: 5 days
Outline: as §1

CANERTINIB [4] = compound: T1, CANERTINIB; assay: area under dose-response curve of surviving fraction (unscaled, Aref=0) (surviving fraction x log10(nM)); higher = more resistant; settings: exposure time: 5 days; dose range 0.5-1000 nM
Outline: (§2)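 Tumour cell lines in 384-well plates were exposed for five days to eight inhibitor concentrations from 0.5 to 1000 nM. Viability was read by CellTiter-Glo luminescence, normalised to DMSO-only wells, in three screens per line. Dose-response survival curves were fitted to surviving fractions by 3-parameter logistic regression in the drc R package. Area under the curve is the unscaled activity area (Aref = 0) over log10 dose.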

SAPACITABINE [5] = compound: T2, SAPACITABINE; assay: as above; settings: exposure time: 5 days; dose range 0.5-1000 nM
Outline: as §2

MDV3100 [6] = compound: T3, MDV3100; assay: as above; settings: exposure time: 5 days; dose range 0.5-1000 nM
Outline: as §2

SNX-5422 [7] = compound: T4, CC1(C)CC(=O)c2c(C(F)(F)F)nn(-c3ccc(C(N)=O)c(N[C@H]4CC[C@H](OC(=O)CN)CC4)c3)c2C1 [SNX-5422]; assay: surviving fraction relative to DMSO-only wells; higher = less growth inhibition; settings: exposure time: 5 days
Outline: as §1

BI-2536 [8] = compound: T5, CC[C@@H]1C(=O)N(C)c2cnc(Nc3ccc(C(=O)NC4CCN(C)CC4)cc3OC)nc2N1C1CCCC1 [BI-2536]; assay: as above; settings: exposure time: 5 days
Outline: as §1

AFATINIB [9] = compound: T6, CN(C)C/C=C/C(=O)Nc1cc2c(Nc3ccc(F)c(Cl)c3)ncnc2cc1O[C@H]1CCOC1 [AFATINIB]; assay: as above; settings: exposure time: 5 days
Outline: as §1

[10] = compound: Cn1cc(C2=Nc3cc(NC(=O)C(N)C4CCCCC4)cc4c3C2=CNNC4=O)cn1; assay: as above; settings: exposure time: 5 days
Outline: as §1

TIOGUANINE [11] = compound: T7, Nc1nc2[nH]cnc2c(=S)[nH]1 [TIOGUANINE]; assay: as above; settings: exposure time: 5 days
Outline: as §1

SNX-5422 [12] = compound: T4, SNX-5422; assay: area under dose-response curve of surviving fraction (unscaled, Aref=0) (surviving fraction x log10(nM)); higher = more resistant; settings: exposure time: 5 days; dose range 0.5-1000 nM
Outline: as §2

BI-2536 [13] = compound: T5, BI-2536; assay: as above; settings: exposure time: 5 days; dose range 0.5-1000 nM
Outline: as §2

AFATINIB [14] = compound: T6, AFATINIB; assay: as above; settings: exposure time: 5 days; dose range 0.5-1000 nM
Outline: as §2

[15] = compound: Cn1cc(C2=Nc3cc(NC(=O)C(N)C4CCCCC4)cc4c3C2=CNNC4=O)cn1; assay: as above; settings: exposure time: 5 days; dose range 0.5-1000 nM
Outline: as §2

TIOGUANINE [16] = compound: T7, TIOGUANINE; assay: as above; settings: exposure time: 5 days; dose range 0.5-1000 nM
Outline: as §2

## CCK81 LARGE INTESTINE
CANERTINIB [1]; 0.5 nM
  surviving fraction: 0.778 ± 0.19
CANERTINIB [1]; 1 nM
  surviving fraction: 0.874 ± 0.16
CANERTINIB [1]; 5 nM
  surviving fraction: 0.928 ± 0.13
CANERTINIB [1]; 10 nM
  surviving fraction: 0.816 ± 0.18
CANERTINIB [1]; 50 nM
  surviving fraction: 0.186 ± 0.03
CANERTINIB [1]; 100 nM
  surviving fraction: 0.0957 ± 0.019
CANERTINIB [1]; 500 nM
  surviving fraction: 0.0373 ± 0.0083
CANERTINIB [1]; 1000 nM
  surviving fraction: 0.0263 ± 0.0059
SAPACITABINE [2]; 0.5 nM
  surviving fraction: 0.972 ± 0.18
SAPACITABINE [2]; 1 nM
  surviving fraction: 0.94 ± 0.2
SAPACITABINE [2]; 5 nM
  surviving fraction: 0.813 ± 0.13
SAPACITABINE [2]; 10 nM
  surviving fraction: 0.7 ± 0.13
SAPACITABINE [2]; 50 nM
  surviving fraction: 0.427 ± 0.12
SAPACITABINE [2]; 100 nM
  surviving fraction: 0.482 ± 0.041
SAPACITABINE [2]; 500 nM
  surviving fraction: 0.456 ± 0.047
SAPACITABINE [2]; 1000 nM
  surviving fraction: 0.47 ± 0.056
MDV3100 [3]; 0.5 nM
  surviving fraction: 0.843 ± 0.11
MDV3100 [3]; 1 nM
  surviving fraction: 0.8 ± 0.19
MDV3100 [3]; 5 nM
  surviving fraction: 0.717 ± 0.076
MDV3100 [3]; 10 nM
  surviving fraction: 0.728 ± 0.046
MDV3100 [3]; 50 nM
  surviving fraction: 0.75 ± 0.091
MDV3100 [3]; 100 nM
  surviving fraction: 0.757 ± 0.068
MDV3100 [3]; 500 nM
  surviving fraction: 0.79 ± 0.03
MDV3100 [3]; 1000 nM
  surviving fraction: 0.728 ± 0.06
CANERTINIB [4]
  area under dose-response curve: 1.68
SAPACITABINE [5]
  area under dose-response curve: 2.16
MDV3100 [6]
  area under dose-response curve: 2.49

## RDES SOFT TISSUE
CANERTINIB [1]; 0.5 nM
  surviving fraction: 0.774 ± 0.16
CANERTINIB [1]; 1 nM
  surviving fraction: 0.858 ± 0.12
CANERTINIB [1]; 5 nM
  surviving fraction: 0.707 ± 0.049
CANERTINIB [1]; 10 nM
  surviving fraction: 0.713 ± 0.19
CANERTINIB [1]; 50 nM
  surviving fraction: 0.903 ± 0.063
CANERTINIB [1]; 100 nM
  surviving fraction: 1.06 ± 0.14
CANERTINIB [1]; 500 nM
  surviving fraction: 1.09 ± 0.032
CANERTINIB [1]; 1000 nM
  surviving fraction: 0.921 ± 0.21
SNX-5422 [7]; 0.5 nM
  surviving fraction: 1.13 ± 0.087
SNX-5422 [7]; 1 nM
  surviving fraction: 1.28 ± 0.15
SNX-5422 [7]; 5 nM
  surviving fraction: 1.07 ± 0.039
SNX-5422 [7]; 10 nM
  surviving fraction: 1.14 ± 0.19
SNX-5422 [7]; 50 nM
  surviving fraction: 0.459 ± 0.056
SNX-5422 [7]; 100 nM
  surviving fraction: 0.367 ± 0.053
SNX-5422 [7]; 500 nM
  surviving fraction: 0.056 ± 0.0095
SNX-5422 [7]; 1000 nM
  surviving fraction: 0.0543 ± 0.0085
SAPACITABINE [2]; 0.5 nM
  surviving fraction: 0.706 ± 0.16
SAPACITABINE [2]; 1 nM
  surviving fraction: 0.765 ± 0.047
SAPACITABINE [2]; 5 nM
  surviving fraction: 0.717 ± 0.13
SAPACITABINE [2]; 10 nM
  surviving fraction: 0.629 ± 0.12
SAPACITABINE [2]; 50 nM
  surviving fraction: 0.919 ± 0.073
SAPACITABINE [2]; 100 nM
  surviving fraction: 0.984 ± 0.034
SAPACITABINE [2]; 500 nM
  surviving fraction: 0.779 ± 0.15
SAPACITABINE [2]; 1000 nM
  surviving fraction: 0.117 ± 0.052
BI-2536 [8]; 0.5 nM
  surviving fraction: 1.05 ± 0.086
BI-2536 [8]; 1 nM
  surviving fraction: 1.11 ± 0.12
BI-2536 [8]; 5 nM
  surviving fraction: 0.603 ± 0.18
BI-2536 [8]; 10 nM
  surviving fraction: 0.0407 ± 0.0038
BI-2536 [8]; 50 nM
  surviving fraction: 0.034 ± 0.0036
BI-2536 [8]; 100 nM
  surviving fraction: 0.024 ± 0.001
BI-2536 [8]; 500 nM
  surviving fraction: 0.0287 ± 0.0015
BI-2536 [8]; 1000 nM
  surviving fraction: 0.0297 ± 0.0035
AFATINIB [9]; 0.5 nM
  surviving fraction: 1.33 ± 0.2
AFATINIB [9]; 1 nM
  surviving fraction: 1.29 ± 0.15
AFATINIB [9]; 5 nM
  surviving fraction: 1.17 ± 0.19
AFATINIB [9]; 10 nM
  surviving fraction: 1.3 ± 0.31
AFATINIB [9]; 50 nM
  surviving fraction: 0.988 ± 0.18
AFATINIB [9]; 100 nM
  surviving fraction: 1.16 ± 0.19
AFATINIB [9]; 500 nM
  surviving fraction: 1.13 ± 0.22
AFATINIB [9]; 1000 nM
  surviving fraction: 1.11 ± 0.019
MDV3100 [3]; 0.5 nM
  surviving fraction: 1.25 ± 0.1
MDV3100 [3]; 1 nM
  surviving fraction: 1.07 ± 0.035
MDV3100 [3]; 5 nM
  surviving fraction: 1.11 ± 0.064
MDV3100 [3]; 10 nM
  surviving fraction: 1.15 ± 0.11
MDV3100 [3]; 50 nM
  surviving fraction: 1.2 ± 0.086
MDV3100 [3]; 100 nM
  surviving fraction: 1.12 ± 0.21
MDV3100 [3]; 500 nM
  surviving fraction: 1.38 ± 0.074
MDV3100 [3]; 1000 nM
  surviving fraction: 1.25 ± 0.19
[10]; 0.5 nM
  surviving fraction: 1.12 ± 0.071
[10]; 1 nM
  surviving fraction: 0.961 ± 0.14
[10]; 5 nM
  surviving fraction: 0.953 ± 0.08
[10]; 10 nM
  surviving fraction: 1.1 ± 0.21
[10]; 50 nM
  surviving fraction: 0.776 ± 0.2
[10]; 100 nM
  surviving fraction: 1.08 ± 0.39
[10]; 500 nM
  surviving fraction: 0.0493 ± 0.0045
[10]; 1000 nM
  surviving fraction: 0.0827 ± 0.011
TIOGUANINE [11]; 0.5 nM
  surviving fraction: 1.19 ± 0.17
TIOGUANINE [11]; 1 nM
  surviving fraction: 1.42 ± 0.042
TIOGUANINE [11]; 5 nM
  surviving fraction: 1.33 ± 0.06
TIOGUANINE [11]; 10 nM
  surviving fraction: 1.35 ± 0.13
TIOGUANINE [11]; 50 nM
  surviving fraction: 1.25 ± 0.17
TIOGUANINE [11]; 100 nM
  surviving fraction: 1.19 ± 0.12
TIOGUANINE [11]; 500 nM
  surviving fraction: 1.07 ± 0.012
TIOGUANINE [11]; 1000 nM
  surviving fraction: 1.28 ± 0.15
CANERTINIB [4]
  area under dose-response curve: 2.83
SNX-5422 [12]
  area under dose-response curve: 2.11
SAPACITABINE [5]
  area under dose-response curve: 2.34
BI-2536 [13]
  area under dose-response curve: 1.09
AFATINIB [14]
  area under dose-response curve: 3.88
MDV3100 [6]
  area under dose-response curve: 3.91
[15]
  area under dose-response curve: 2.71

## HS57T LUNG
CANERTINIB [4]
  area under dose-response curve: 2.92
SNX-5422 [12]
  area under dose-response curve: 2.06
SAPACITABINE [5]
  area under dose-response curve: 2.37
BI-2536 [13]
  area under dose-response curve: 1.08
AFATINIB [14]
  area under dose-response curve: 3.15
MDV3100 [6]
  area under dose-response curve: 3.03
[15]
  area under dose-response curve: 2.49
TIOGUANINE [16]
  area under dose-response curve: 3.23
